How the values were obtained:
[1] = Sulfate binding constants, average of the UV-vis and NMR titrations, and E,E − Z,Z comparison
Method: For absorption titration experiments, a freshly prepared stock solution of 1.5 mM E,E-2PyDIG·HOTf in DMSO-d6 was added to a 1 mm quartz cuvette, and a tetramethylammonium sulfate solution (3.6 mM in DMSO-d6) was added, and the solution was mixed. Absorption spectra were collected after each addition using a UV-Visible spectrophotometer at ca. 24° C. For the Z,Z photoisomer, a freshly prepared 1.5 mM 2PyDIG·HOTf sample was irradiated for 1 hour before titration experiments were prepared and carried out in the same manner as for the E,E isomer.
The binding constants from the three UV-Vis titrations were calculated using commercial software based on the changes in the 2PyDIG^+ absorption maximum value at 315 nm and 320 nm for the E,E and Z,Z photoisomers, respectively. Fitting was performed by assigning the 1:0 and 1:2 PyDIG:sulfate adducts as spectra from before addition of sulfate and after 3 molar equivalents of sulfate, respectively.
For ^1H NMR titrations, a freshly prepared stock solution of 1.5 mM 2PyDIG·HOTf in DMSO-d6 was added to twelve NMR tubes, and a tetramethylammonium sulfate solution (10 mM in DMSO-d6) was added in varying stoichiometric amounts. Clean DMSO-d6 was then added to achieve a final volume of 500 μL. Titrations were performed with both a micropipette and a micrometer syringe. For the Z,Z photoisomer, a freshly prepared 1.5 mM 2PyDIG·HOTf sample was irradiated for 1 hour before the six titration experiments were prepared and carried out in the same manner as for the E,E isomer. To ensure that the PyDIG concentration was not changing as a result of precipitation, dimethylsulfone was added as an internal standard to the 1:2 PyDIG:SO4 solution. It was determined that the concentration of PyDIG remained constant throughout the experiment.
The binding constants from the four ^1H NMR titrations were calculated using commercial software based on the changes in the guanidinium —N—H chemical shifts of the 2PyDIG protons. During fitting, only the monoprotonated 2PyDIG cation was considered, as the Bjerrum pair of 2PyDIG cation and triflate in DMSO was estimated to have a Kassociation value of 156 M−^1. Fitting was performed by locking the 1:0 and 1:2 PyDIG:sulfate adducts at known chemical shift values to reduce the number of adjustable parameters to refine. The corresponding speciation and residual plots for each trial made. Attempts to increase the experimental concentration of 2PyDIG·HOTf higher than 1 mM produced solids, which prevented NMR titrations at higher concentrations.

[2] = Photoirradiation, thermal relaxation and cycling monitored by 1H NMR in DMSO-d6; assay type: physicochemical; settings: for time to reach thermal equilibrium: 10 mM, photoirradiated
Method: In a typical photoirradiation NMR experiment, 3 mL of a freshly made deuterated DMSO solution was placed in a quartz cuvette (1 cm×1 cm×4.5 cm), stirred, and irradiated with UV-visible light using an unfiltered super high-pressure mercury lamp with emissions in the long-wave UV region and in the visible region at the yellow, green, blue, and violet wavelengths (254-800 nm). From the irradiated solution, 500 μL aliquots were removed with a micropipette and transferred to NMR tubes. For studies including excess triflate, a stock solution (200 mM) of tetramethylammonium triflate in DMSO-d6 was added before irradiation to obtain the desired concentration. Experiments were carried out in the same fashion as above. All measurements were obtained on the irradiated solutions within 1 hour of irradiation. ^1H spectra were recorded on a Bruker AvanceIII-400 MHz NMR spectrometer equipped with a 5 mm PABBO probe. The residual solvent signal ((CD3)2SO δH=2.50 ppm) was considered as an internal reference to calibrate spectra and the temperature was held at 24° C. The chemical shifts used to monitor photoisomerization were the set of doublets at 8.67 and 8.80 ppm and triplets at 7.54 and 7.68 ppm for the E,E and Z,Z isomers, respectively. […] The sample underwent hydrolysis back to the aldehyde only under forcing conditions of heating the sample at 50° C. for 2 weeks in water, where the aldehyde proton at 9.86 ppm started to resolve.
Cycling studies were performed by irradiating a freshly prepared, 9.94 mM 2PyDIG·HOTf DMSO-d6 solution in an NMR tube at 24° C. After 6 hour, a ^1H NMR spectrum was collected to determine the photoisomerization value, and the sealed NMR tube was placed in a 50° C. oven. The sample was heated statically for 24 hour, at which point the solution was left to cool at room temperature for approximately 30 min, and a ^1H NMR spectrum was collected to determine the thermal relaxation value. This cycling process was repeated three more times.

[3] = Photoswitching in the absence or presence of sulfate (1H NMR, DMSO-d6); assay type: physicochemical
Method: Photoswitching in the presence of sulfate was performed in one of two methods. In the first method, 0.5 mol ratio (sulfate to 2PyDIG^+) tetramethylammonium sulfate was added to a freshly prepared 10 mM E,E-2PyDIG·HOTf in DMSO-d6 solution in a quartz cuvette. After the addition of sulfate, the solution was irradiated with a UV (Hg lamp) light for 2 hours while stirring. The solution was then heated statically for 36 hours, at which point the solution was left to cool at room temperature for approximately 30 minutes, and a ^1H NMR spectrum was collected. In the second method, a freshly prepared 10 mM E,E-2PyDIG·HOTf in DMSO-d6 solution was irradiated with UV (Hg lamp) light for 2 hours while stirring. Following this, tetramethylammonium sulfate was added in either 0.5 or 1.0 mol ratio (sulfate to 2PyDIG^+). The solution was then heated statically for 36 hours, at which point the solution was left to cool at room temperature for approximately 30 minutes, and a ^1H NMR spectrum was collected. ^1H NMR spectra were collected on 500 μL aliquots of the freshly prepared samples, samples after photoirradiation, and samples after thermal treatment at 50° C. for 36 hours.

[4] = Control, no SO4 added, mol ratio 0
[5] = SO4 added after irradiation, mol ratio 0.5
[6] = SO4 added after irradiation, mol ratio 1.0

log b11, E,E − Z,Z Difference ([1]; Eq. 2, difference of log binding constants of the isomers): 5.40±0.45
log b21, E,E − Z,Z Difference ([1]; Eq. 3, difference of log binding constants of the isomers): 8.31 ± 0.56
log b21, E,E Avg Value ([1]; Eq. 3, precision-weighted average of UV-vis and NMR titrations, DMSO-d6, 24° C.): 11.39±0.55
log b12, E,E − Z,Z Difference ([1]; Eq. 4, difference of log binding constants of the isomers): 7.91 ± 0.76
log b12 of the 1:2 adduct ([1]; as printed in text with unit, average value of Table 2): 11.91±0.74 M^−1
log K12, addition of the second sulfate to the 1:1 adduct ([1]; stepwise constant, DMSO-d6): 4.7±1.5
photoconversion to the Z,Z isomer ([2]; 1.5 mM (low concentration), UV irradiation, DMSO-d6, 24° C.): 95.6±0.4%
Z,Z isomer initially present ([2]; 1.5 mM, before UV irradiation, DMSO-d6): 5.5±0.5%
percent Z,Z isomer in cycling, after irradiation ([2]; 10 mM in DMSO, 6-hour irradiation): 69%
percent Z,Z isomer in cycling, after dark equilibration ([2]; 10 mM in DMSO, 24-hour dark equilibration): 25%
Z,Z isomer at PSS ([2]; 10 mM solution, UV irradiation): 67.7±4.4%
experimental free energy difference between E,E and Z,Z forms (Eq. 1) ([2]; in the presence of triflate): 0.5 kcal/mol
equilibrium constant of thermal relaxation back to E,E from Z,Z (Eq. 1) ([2]; independent of temperature): 2.38(8)
E,E isomer at common thermal equilibrium ([2]; photoirradiated and nonirradiated solutions, thermal relaxation): 70.5±0.9%
Relative Amount of E,E-2PyDIG+, before irradiation [3, 4]: 97.4 ± 0.6%
Relative Amount of E,E-2PyDIG+, thermal equilibrium [3, 4]: 70.5 ± 0.9%
Relative Amount of E,E-2PyDIG+, after irradiation ([3]; Control, no SO4 added, mol ratio 0, PSS): 32.3 ± 4.4%
Relative Amount of E,E-2PyDIG+, after irradiation [3, 5]: 33.2 ± 5.3%
Relative Amount of E,E-2PyDIG+, before irradiation [3, 5]: 95.1 ± 1.4%
Relative Amount of E,E-2PyDIG+, thermal equilibrium [3, 5]: 93.1 ± 3.3%
Relative Amount of E,E-2PyDIG+, after irradiation [3, 6]: 31.0 ± 4.7%
Relative Amount of E,E-2PyDIG+, before irradiation [3, 6]: 93.4 ± 2.9%
Relative Amount of E,E-2PyDIG+, thermal equilibrium [3, 6]: 91.6 ± 1.9%
Relative Amount of E,E-2PyDIG+, before irradiation ([3]; SO4 added before irradiation, mol ratio 0.5): 91.1 ± 1.2%
Relative Amount of E,E-2PyDIG+, thermal equilibrium ([3]; SO4 added before irradiation, mol ratio 0.5, 50° C., 36 hours): 91.2 ± 1.4 ^ %
Relative Amount of E,E-2PyDIG+, thermal equilibrium ([3]; SO4 added before irradiation, mol ratio 0.5, 50° C., 36 hours, listed as 2PyDIG·HOTf): 91.2±1.4%
Relative Amount of E,E-2PyDIG+, after irradiation ([3]; SO4 added before irradiation, mol ratio 0.5, 2 hours UV): 32.5 ± 3.8 ^ %
Relative Amount of E,E-2PyDIG+, after irradiation ([3]; SO4 added before irradiation, mol ratio 0.5, 2 hours UV, listed as 2PyDIG·HOTf): 32.5±3.8%
Relative Amount of E,E-2PyDIG+, before irradiation ([3]; SO4 added before irradiation, mol ratio 0.5, listed as 2PyDIG·HOTf): 92.8±1.4%
E,E isomer before sulfate addition, before irradiation ([3]; ca. 10 mM 2PyDIG·HOTf in DMSO-d6, before addition of 0.5 mol ratio sulfate): 93.1±1.2%
SMILES: N=C(N/N=C/c1ccccn1)N/N=C/c1ccccn1.O=S(=O)(O)C(F)(F)F [E,E-2PyDIG, bis(2-((E)-pyridin-2-ylmethylene)hydrazineyl)methaniminium trifluoromethanesulfonate]
time required to reach thermal equilibrium ([2]; 1 mM solution, even at elevated temperatures): greater than 20 days
time to reach photoconversion to the Z,Z isomer ([2]; 1.5 mM, UV irradiation): less than 15 min
time to reach PSS ([2]; 10 mM solution, UV irradiation): more than 2 hours
time to reach thermal equilibrium ([2]; 24° C.): 4 days
time to reach thermal equilibrium ([2]; 50° C.): less than 24 h
time to thermally equilibrate, unirradiated E,E isomer ([2]; unirradiated, 24° C.): 14 days
